# In patent US20250161297A1, “COMPOSITIONS AND METHODS FOR INHIBITING FSP1” (THE REGENTS OF THE UNIVERSITY OF CALIFORNIA, priority 2022, published 2025):
# Experiments:
# Format in all cases: cell-based
# H460^C cells = assay: GPX4 inhibitor-induced cell death with FSEN1 co-treatment
# Experimental: (§1) For cell-based screen, cells were seeded in triplicate at a density of 500-750 cells per 50 μL per well in black 384-well plates (NUNC) and (Corning) 24 hr before start of imaging. After 24 hr, an additional 50 μL of drug infused medium containing 30 nM SYTOX Green Dead Cell Stain was carefully placed into the wells on top of existing medium. The plates were immediately transferred to an IncuCyte S3 imaging system (Essen Bioscience) enclosed in an incubator set to 37° C. and 5% CO2. One image per well were captured in the phase, green, and red channels every 1.5 or 3 hr over a 24 hr period, and the ratio of SYTOX Green-positive objects (dead cells) to SYTOX Green-positive plus Sg-SAFE mCherry-positive objects (total cells) was quantified using S3 image analysis software (Essen Bioscience). For each treatment condition, the SYTOX-to-′SYTOX+mCherry′-object ratio was plotted against the 24 hr imaging interval, the Area Under the Curve (AUC) was calculated and the average AUC was plotted using Prism (GraphPad). To calculate the half-maximal effective concentration (EC50) values, the AUC curve was fit to a variable slope function comparing response to drug concentration.
# Synergy experiments: For cell-based synergy experiments, cells were seeded at a density of 750 cells per 25 μL per well in four black 384-well plates (Corning) 24 hr before start of imaging. After 24 hr, an additional 25 μL of drug infused medium containing 30 nM SYTOX Green Dead Cell Stain was carefully placed into the wells on top of existing medium. The plates were immediately transferred to an IncuCyte S3 imaging system (Essen Bioscience) enclosed in an incubator set to 37° C. and 5% CO2. One image per well were captured in the phase, green, and red channels every 4 hr over a 24 hr period, and the ratio of SYTOX Green-positive objects (dead cells) to SYTOX Green-positive plus Sg-SAFE mCherry-positive objects (total cells) was quantified using S3 image analysis software (Essen Bioscience). For each treatment condition, the SYTOX-to-′SYTOX+mCherry′-object ratio was plotted against the 24 hr imaging interval, the Area Under the Curve (AUC) was calculated, and the average AUC was plotted as a function of drug concentration (for example, RSL3) using Prism (GraphPad). To calculate the half-maximal effective concentration (EC50) values, the AUC curve was fit to a variable slope function comparing response to drug concentration.
# H460^C FSP1KO cells = assay: RSL3-, DHA- or FINO2-induced cell death in FSP1 knockout cells
# Experimental: as §1
# Synergy experiments: For cell-based synergy experiments, cells were seeded at a density of 750 cells per 25 μL per well in four black 384-well plates (Corning) 24 hr before start of imaging. […]
# [1] = tested on: panel of cancer cell lines of various tissue origins; assay: RSL3-induced cell death in a panel of cancer cell lines; settings: 1 μM FSEN1; lung, breast, liver, glial, bone, connective, lymphoid, skin lines
# Experimental: as §1, with “concentration. […]” for “concentration.”
smiles,measurement,setting,value
COc1ccc(N2CCN(Cc3cn4c(-c5ccc(Br)cc5)nnc4s3)CC2)cc1 [FSEN1],sensitization to GPX4 inhibitors RSL3 and ML162,H460^C cells,sensitized
same,additional sensitizing effect to DHA and FINO2 induced cell death,H460^C FSP1KO cells; FSP1KO cells,no additional sensitizing effect
same,additional sensitization to RSL3-induced cell death,H460^C FSP1KO cells; H460^C FSP1KO cells,did not result in any additional sensitization
same,sensitization to RSL3-induced ferroptosis,[1],sensitized all cancer cells
